# Data from patent publication US20220017468A1, “ISOQUINOLINE COMPOUNDS AND THEIR USE IN TREATING AhR IMBALANCE” (Dermavant Sciences GmbH, priority 2020, published 2022).
# Several values for one entry are separate records, joined by “and”; a condition that tells them apart may be missing. Equal values may be shown once.
# What was measured:
# [1] = plasma protein binding by Rapid Equilibrium Dialysis, rat; format: in vitro ADME; settings: rat, plasma
# Source text: (§1) The blood-to-plasma ratios were similar across species (1.22-1.36, Table 9).
# Rat Plasma Proteins = assay: as above; format: in vitro ADME
# Source text: as §1
# [2] = metabolic stability in hepatocytes, human; format: in vitro ADME
# [3] = metabolic stability in liver microsomes, minipig; format: in vitro ADME
# [4] = plasma protein binding by Rapid Equilibrium Dialysis, minipig; format: in vitro ADME; settings: minipig, plasma
# Source text: as §1
# Minipig Plasma Proteins = assay: as above; format: in vitro ADME
# Source text: as §1
# [5] = pharmacokinetics after a single intravenous dose, minipig; format: in vivo; settings: plasma, 1 mg/kg intravenous, mean
# Source text: (§2) Bioavailability was 46.5% and 41.0% for 30% Captisol and 30% Cavitron, respectively. 30% Captisol formulation was selected for the 7-day subcutaneous toxicity study in rat.
# [6] = skin binding in human skin homogenate; format: in vitro ADME; settings: 25, 50 and 100 ng/mL
# [7] = test system: primary human cell culture platforms; assay: BioMAP Diversity Plus profiling; format: cell-based
# [8] = bioavailability after a single oral dose, minipig; format: in vivo; settings: plasma, single 5 mg/kg oral dose, DMSO: Kolliphore HS15: hydroxypropyl-β-cyclodextrin (10:10:80)
# Source text: as §2
# AhR [9] = target: T1, AhR (Homo sapiens, UniProt P35869); assay: CYP1A1-bla LS-180 AhR antagonist assay; format: cell-based; settings: competition of FICZ- or TCDD-induced AhR activation
# T1 construct: LS-180 cells stably transfected with a CYP1A1 promoter-linked beta-lactamase gene reporter construct; endogenous in cells; host or cells: CYP1A1-bla LS-180 cells
# T1 sequence (P35869 11-848): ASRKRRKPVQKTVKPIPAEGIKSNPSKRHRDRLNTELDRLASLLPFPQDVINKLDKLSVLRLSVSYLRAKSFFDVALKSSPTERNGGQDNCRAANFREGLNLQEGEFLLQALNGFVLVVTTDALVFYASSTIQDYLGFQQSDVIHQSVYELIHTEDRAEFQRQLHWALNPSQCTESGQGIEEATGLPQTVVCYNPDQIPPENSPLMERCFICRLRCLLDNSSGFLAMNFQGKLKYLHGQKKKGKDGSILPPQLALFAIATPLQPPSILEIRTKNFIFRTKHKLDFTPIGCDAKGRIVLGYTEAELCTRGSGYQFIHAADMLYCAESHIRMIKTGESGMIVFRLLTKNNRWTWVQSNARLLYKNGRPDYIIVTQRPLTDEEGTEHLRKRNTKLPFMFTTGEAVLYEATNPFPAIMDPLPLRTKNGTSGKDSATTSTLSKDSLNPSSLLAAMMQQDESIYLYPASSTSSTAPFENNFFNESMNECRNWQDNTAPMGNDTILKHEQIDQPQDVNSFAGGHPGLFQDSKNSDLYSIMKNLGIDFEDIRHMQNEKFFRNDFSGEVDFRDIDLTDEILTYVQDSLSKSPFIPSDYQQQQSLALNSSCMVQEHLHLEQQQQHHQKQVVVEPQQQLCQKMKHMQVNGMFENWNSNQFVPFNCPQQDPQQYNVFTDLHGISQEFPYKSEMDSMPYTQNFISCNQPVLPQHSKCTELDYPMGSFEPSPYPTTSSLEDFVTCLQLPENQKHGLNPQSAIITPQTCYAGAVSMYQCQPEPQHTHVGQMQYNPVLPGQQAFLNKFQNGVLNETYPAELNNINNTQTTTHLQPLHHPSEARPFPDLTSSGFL
# Procedure: A similar assay was used to evaluate the antagonist capacity of compounds. CYP1A1-bla LS-180 cells in exponential growth phase were washed twice with DPBS then seeded into 96-well microplates (50,000 cells/well) and allowed to adhere. Either FICZ or TCDD was added as an agonist and prepared compounds (2× working concentrations in complete media) were added 2 hours later. Cells were incubated for ˜20 hrs, after which compounds were tested for their ability to compete FICZ- or TCDD-induced AhR activation as a means to evaluate potential allosteric or partial agonist activity. The LiveBLAzer FRET B/G β-lactamase substrate was added in the final hour of incubation and resulting blue/green fluorescence was measured using a 96-well microplate reader, as described above.
# [10] = metabolic stability in hepatocytes, mouse; format: in vitro ADME
# [11] = oxygen radical absorbance capacity (ORAC) test; format: biochemical; settings: Trolox Equivalent Values
# [12] = metabolic stability in liver microsomes, dog; format: in vitro ADME
# Nrf2 = assay: luciferase-based reporter assay for NQO1 gene expression; format: cell-based
# AhR [13] = target: T1, AhR; assay: CYP1A1-bla LS-180 AhR agonist assay; format: cell-based
# Procedure: LS-180 cells stably transfected with a CYP1A1 promoter-linked beta-lactamase gene reporter construct (termed CYP1A1-bla LS-180 cells) were used to characterize the ability of compounds to activate AhR. In brief, AhR activity was measured using the LiveBLAzer assay kit which utilizes a beta lactamase (bla) reporter gene downstream of CYP1A1 promoter, which metabolizes its substrate to give a fluorescent readout. For the agonist assay, CYP1A1-bla LS-180 cells were treated with increasing concentrations of compound over a 100,000-fold concentration range.
# CYP1A1-bla LS-180 cells in exponential growth phase were washed twice with DPBS then seeded into 96-well microplates (50,000 cells/well) and allowed to adhere. […] The LiveBLAzer FRET B/G β-lactamase substrate was added in the final hour of incubation and resulting blue/green fluorescence was measured using a 96-well microplate reader.
# AhR activity was measured as a function of beta-lactamase expression using a fluorescence resonance energy transfer-based readout. TCDD and FICZ were used as controls to validate the system.
# [14] = metabolic stability in hepatocytes, minipig; format: in vitro ADME
# [15] = read-out: % Unbound Mean (% CV)
# [16] = read-out: Mean % Bound (converted)
compound,measurement,setting,value
CC(C)c1c(O)cc(-c2cc3ccccc3cn2)cc1O,"fraction unbound at 4 h, 2 μM",[1]; [15],0.0306
same,"fraction unbound at 4 h, 2 μM",[1]; [16],0.031
same,"recovery at 4 h, 2 μM",Rat Plasma Proteins,104%
same,% Unbound Replicate,Rat Plasma Proteins; 2 μM,1.37% and 1.44% and 6.36%
same,Mean % Stability at 4 hrs,Rat Plasma Proteins; 2 μM,94.4%
same,half-life at 0.5 μM,[2],10.4 min
same,"CLint, hep",[2]; 0.5 μM,15.7 mL/min/g liver
same,CLint scaled at 0.5 μM,"[2]; read-out: Scaled CLint, hep",384 mL/min/kg
same,"CLint, mic","[3]; minipig liver microsomes, 0.5 μM",3.01 mL/min/g liver
same,CLint scaled at 0.5 μM,"[3]; minipig liver microsomes, 0.5 μM, read-out: Scaled CLint, mic",50.3 mL/min/kg
same,half-life at 0.5 μM,"[3]; minipig, microsomes",24.2 min
same,"fraction unbound at 4 h, 2 μM",[4]; [15],0.0198
same,"fraction unbound at 4 h, 2 μM",[4]; read-out: % Unbound Replicate,0.0187
same,"fraction unbound at 4 h, 2 μM",[4]; [16],0.02
same,"recovery at 4 h, 2 μM",Minipig Plasma Proteins,95.6%
same,% Unbound Replicate,Minipig Plasma Proteins; 2 μM,2.52% and 1.57%
same,Mean % Stability at 4 hrs,Minipig Plasma Proteins; 2 μM,107%
same,AUC(0-inf),[5],783 ng·h/mL
same,half-life,[5],61.2 min
same,clearance,[5]; read-out: CLp,21.3 mL/min/kg
same,Vd,[5]; read-out: Vss,1.5 L/kg
same,fraction unbound,[6]; human dermis homogenate,0.341 ± 0.115
same,fraction unbound,[6]; human epidermis homogenate,0.513 ± 0.011
same,fraction unbound,[6]; whole human skin homogenate,0.219 ± 0.0072
same,effect on B cell proliferation,"[7]; 1 μM, 330 nM, 110 nM and 37 nM",anti-proliferative to B cells
same,increased biomarkers,"[7]; 1 μM, 330 nM, 110 nM and 37 nM","increased IL8, IL1α, sPGE2, ICAM-1, and E-selectin"
same,"reduced biomarkers (M-CSF, sIL-17A, sIL-2, sIL-6, sIL-10, Eot3, sTNFα, MCP-1, VCAM-1, MIP-1)","[7]; 1 μM, 330 nM, 110 nM and 37 nM",reductions in various cytokines/chemokines
same,sIL-17 in BioMAP,[7]; profiles overlaid,observed reduction in sIL-17
same,bioavailability,[8],0.1%
same,AhR antagonist assay result,AhR [9],negative
same,half-life at 0.5 μM,[10],8.39 min
same,"CLint, hep",[10]; 0.5 μM,22.3 mL/min/g liver
same,CLint scaled at 0.5 μM,"[10]; read-out: Scaled CLint, hep",1140 mL/min/kg
same,Hydroxyl-radical,[11],759 TEV
same,Peroxyl radical-hydro,[11],3267 TEV
same,Peroxyl radical-lipo,[11],1397 TEV
same,Peroxynitrite,[11],100 TEV
same,Singlet oxygen,[11],2914 TEV
same,Total ORAC value,[11],8437 TEV
same,"CLint, mic","[12]; dog liver microsomes, 0.5 μM",1.59 mL/min/g liver
same,CLint scaled at 0.5 μM,"[12]; dog liver microsomes, 0.5 μM, read-out: Scaled CLint, mic",51.7 mL/min/kg
same,half-life at 0.5 μM,"[12]; dog, microsomes",32.1 min
same,Nrf2 pEC50,Nrf2,pEC50 = 7.0
same,EC50,AhR [13],15.8 nM
same,in vitro-to-in vivo extrapolation (IVIVE) ratio,[14]; minipig,0.27
same,"CLint, hep","[14]; minipig hepatocytes, 0.5 μM",6.27 mL/min/g liver
same,half-life at 0.5 μM,"[14]; minipig hepatocytes, 0.5 μM",26.5 min
same,CLint scaled at 0.5 μM,"[14]; minipig hepatocytes, 0.5 μM, read-out: Scaled CLint, hep",105 mL/min/kg
